Results taken from patent publication US20150322403A1, “REGULATION OF EUKARYOTIC GENE EXPRESSION BY RIBOSOMAL READING-FRAME SWITCH EFFICIENCY CONTROL VIA REGULATORY ELEMENT UPSTREAM OF THE FRAMESHIFTING SITE” (NATIONAL CHUNG HSING UNIVERSITY, priority 2014, published 2015).

Columns and labels:
[1] = system: theo-OFF2 element and SAH-sensing pseudoknot stimulator; experiment: -1 PRF activity, theo-OFF2 plus SAH-sensing pseudoknot, wheat germ lysate; type: biochemical; settings: theo-OFF2 fused with SAH-dependent stimulator
Description: We also fused theo-OFF2 with an SAH-dependent −1 PRF stimulator and examined the ligand-dependent −1 PRF activity in vitro using wheat germ lysate.

[2] = system: theo-OFF1 element (theophylline aptamer); experiment: in vitro -1 PRF activity analysis, upstream theo-OFF1 element, reticulocyte lysate; settings: DU177 pseudoknot stimulator, increasing amounts of theophylline
Description: The boxed nucleotides were deleted in the negative control theo-mOFF1 element.

[3] = system: theo-ON element; experiment: in vitro -1 PRF activity analysis, upstream theo-ON element, reticulocyte lysate; settings: DU177 pseudoknot stimulator
[4] = system: theo-OFF2 element; experiment: -1 PRF activity analysis, upstream theo-OFF2 element, wheat germ extract; settings: wheat germ lysate, compared with reticulocyte lysate
[5] = system: GlcT-OFF RNA element (RAT sequence) upstream of the slippery site; experiment: in vitro -1 PRF activity analysis, upstream GlcT-OFF element, reticulocyte lysate; type: biochemical; settings: DU177 pseudoknot stimulator, increasing amounts of protein
Description: (§1) Mfold was used to predict structures and free energies of the attenuator and anti-attenuator hairpins.
As the ribonucleic-antiterminator (RAT) sequence of Bacillus subtilis ptsGHI operon adopts an unstable internal loop conformation and can be stabilized by the binding of GlcT antiterminator protein (Langbein, I. et al, J. Mol. Biol. 293, 795-805, 1999), we designed a chimeric RNA element containing an RAT sequence (GlcT-OFF) with the 3′-side of RAT internal loop embedded in a stable hairpin stem and placed the chimeric RNA element upstream of the slippery site with a potent downstream −1 PRF stimulator (FIG. 3A). We rationalized that the engineered hairpin is the dominant conformation and serves as an upstream −1 PRF attenuator, whereas the addition of GlcT protein should disrupt the attenuator hairpin via RAT-GlcT complex formation and thus restore −1 PRF activity.
We then designed the second chimera to down-regulate the −1 PRF by the formation of an efficient attenuator hairpin promoted by the same RNA-protein interactions (FIG. 3A).

[6] = system: GlcT-ON RNA element; experiment: in vitro -1 PRF activity analysis, upstream GlcT-ON element, reticulocyte lysate; type: biochemical; settings: DU177 pseudoknot stimulator, increasing amounts of protein
Description: as §1
Therefore, the GlcT-ON RNA element is embedded with three potential RNA motifs; that is, an RAT internal loop, an anti-attenuator hairpin and an efficient −1 PRF attenuator hairpin with the component of the anti-attenuator hairpin being overlapped with the other two motifs. Without the GlcT protein, this anti-attenuator hairpin might be the dominant conformation. Upon GlcT protein addition, the equilibrium might be driven by RNA-protein interaction to disrupt the anti-attenuator hairpin stem and thus release its 3′-side to facilitate the formation of an efficient −1 PRF attenuator hairpin.
Together, these proof-of-principle experiments indicate that −1 PRF activity can be regulated in-trans via a set of RNA-protein interactions designed to control the formation of an upstream −1 PRF attenuation hairpin.

Nc1ncnc2c1ncn2[C@@H]1O[C@H](CSCC[C@H](N)C(=O)O)[C@@H](O)[C@H]1O [SAH]
-1 frameshifting efficiency in wheat germ lysate [1]: only mildly increased

Cn1c(=O)c2[nH]cnc2n(C)c1=O [theophylline]
in vitro -1 PRF activity of reporter harboring theo-OFF1 [2]: up-regulated | -1 PRF activity of reporter with theo-ON [3]: down-regulation | dynamic range of theophylline-dependent -1 PRF activity, theo-OFF2 [4]: even higher dynamic range

B1: GlcT protein: GlcT antiterminator protein binding the RAT sequence of Bacillus subtilis ptsGHI operon (protein, UniProt O31691 1-281, looked up)
PtsGHI operon antiterminator: MNGSFTVKKVLNNNVLIASHHKYSEVVLIGKGIGFGKKQDDVIEDKGYDKMFILKDEKEQKQFKKLLDYVDEKLVDISNDVIYHISNRTNHSLNEHIHIALTDHIAFAIKRQQQGFDMKNPFLMETQSLYPEEYQIAKEVIDMINEKAGLCLPEGEIGFIALHIHSALTNRPLSEVNQHSQLMAQLVEVIEDSFQMKVNKESVNYLRLIRHIRFTIERIKKEEPTKEPEKLMLLLKNEYPLCYNTAWKLIKILQQTLKKPVHEAEAVYLTLHLYRLTNKIS
in vitro -1 PRF efficiency of reporter containing GlcT-OFF [5]: up-regulated | in vitro -1 PRF activity of reporter containing GlcT-ON [6]: repressed
